Test system: patients with advanced solid tumors
Experiment: phase I dose escalation: safety, DLT, MTD, RP2D (CTCAE v. 5)
Assay type: in vivo
Settings: 5:2, 300 mg (N=6)
Source text: Subsequent dosing cohorts were enrolled using a standard 3 + 3 design.
If any patient in any cohort of three patients developed a DLT during cycle 1, an additional three patients were recruited to expand the cohort to up to six evaluable patients. If two or more patients in any expanded cohort developed a DLT, this dose was considered non-tolerated, and dose escalation was discontinued. The MTD was defined as the highest dose level for which no more than one of six patients experienced a DLT.
Patients were continuously evaluated for adverse events throughout the study using the Common Terminology Criteria of Adverse Events (CTCAE v. 5). The patients underwent a clinical history and physical examination, an ECOG PS, a complete blood count (CBCs), chemistry, coagulation studies, urinalysis, a serum pregnancy test (as applicable), a triplicate ECG, an ophthalmology examination, and baseline tumor assessment at screening. During cycle 1, weekly history and physical examination, CBC, chemistry, coagulation parameters, urinalysis, and triplicate ECGs were performed; in subsequent cycles, weekly labs were limited to a CBC. Repeat ophthalmology examinations were performed at cycle 3, day 1, and at the end of treatment. Repeat tumor assessment was performed every 2 cycles (6 weeks) in accordance with RECIST 1.1.

Structure (SMILES): CC(C)[C@H](N)C(=O)SCC/C=C/[C@@H]1CC(=O)NCc2nc(cs2)C(=O)NC(C)(C)C(=O)N[C@@H](C(C)C)C(=O)O1 [OKI-179, Bocodepsin]
- TEAE: Aspartate aminotransferase increased (All grades): 1 (17) N (%)
- TEAE: Back pain (All grades): 2 (33) N (%)
- TEAE: Bile duct stenosis (All grades): 1 (17) N (%)
- TEAE: Blood alkaline phosphatase increased (All grades): 1 (17) N (%)
- TEAE: Decreased appetite (All grades): 2 (33) N (%)
- TEAE: Dehydration (All grades): 1 (17) N (%)
- TEAE: Dysphagia (All grades): 1 (17) N (%)
- TEAE: ECG QT prolonged (All grades): 2 (33) N (%)
- TEAE: Enterococcal bacteremia (All grades): 1 (17) N (%)
- TEAE: Esophagitis (All grades): 1 (17) N (%)
- TEAE: Esophagoscopy (All grades): 1 (17) N (%)
- TEAE: Eye pain (All grades): 1 (17) N (%)
- TEAE: Fatigue (All grades): 4 (67) N (%)
- TEAE: Gastritis (All grades): 1 (17) N (%)
- TEAE: Hypomagnesaemia (All grades): 1 (17) N (%)
- TEAE: Myalgia (All grades): 1 (17) N (%)
- TEAE: Nausea (All grades): 5 (83) N (%)
- TEAE: Neutrophil count decreased (All grades): 1 (17) N (%)
- TEAE: Oropharyngeal pain (All grades): 1 (17) N (%)
- TEAE: Pain in extremity (All grades): 1 (17) N (%)
- TEAE: Paresthesia (All grades): 1 (17) N (%)
- TEAE: Platelet count decreased (All grades): 4 (67) N (%)
- TEAE: Pneumonitis (All grades): 1 (17) N (%)
- TEAE: Pneumothorax (All grades): 1 (17) N (%)
- TEAE: Vomiting (All grades): 3 (50) N (%)
- TEAE: Abdominal pain (G1): 0 N (%)
- TEAE: Anemia (G1): 1 (17) N (%)
- TEAE: Aspartate aminotransferase increased (G1): 1 (17) N (%)
- TEAE: Back pain (G1): 1 (17) N (%)
- TEAE: Bile duct stenosis (G1): 0 N (%)
- TEAE: Blood alkaline phosphatase increased (G1): 1 (17) N (%)
- TEAE: Decreased appetite (G1): 0 N (%)
- TEAE: Dehydration (G1): 1 (17) N (%)
- TEAE: Dysphagia (G1): 0 N (%)
- TEAE: ECG QT prolonged (G1): 2 (33) N (%)
- TEAE: Enterococcal bacteremia (G1): 0 N (%)
- TEAE: Esophagitis (G1): 1 (17) N (%)
- TEAE: Esophagoscopy (G1): 0 N (%)
- TEAE: Eye pain (G1): 1 (17) N (%)
- TEAE: Fatigue (G1): 1 (17) N (%)
- TEAE: Gastritis (G1): 1 (17) N (%)
- TEAE: Hypomagnesaemia (G1): 1 (17) N (%)
- TEAE: Myalgia (G1): 1 (17) N (%)
- TEAE: Nausea (G1): 4 (67) N (%)
- TEAE: Neutrophil count decreased (G1): 1 (17) N (%)
- TEAE: Oropharyngeal pain (G1): 0 N (%)
- TEAE: Pain in extremity (G1): 0 N (%)
- TEAE: Paresthesia (G1): 1 (17) N (%)
- TEAE: Platelet count decreased (G1): 4 (67) N (%)
- TEAE: Pneumonitis (G1): 0 N (%)
- TEAE: Pneumothorax (G1): 0 N (%)
- TEAE: Vomiting (G1): 2 (33) N (%)
- TEAE: Abdominal pain (G2): 1 (17) N (%)
- TEAE: Anemia (G2): 0 N (%)
- TEAE: Aspartate aminotransferase increased (G2): 0 N (%)
- TEAE: Back pain (G2): 0 N (%)
- TEAE: Bile duct stenosis (G2): 0 N (%)
- TEAE: Blood alkaline phosphatase increased (G2): 0 N (%)
- TEAE: Decreased appetite (G2): 1 (17) N (%)
- TEAE: Dehydration (G2): 0 N (%)
- TEAE: Dysphagia (G2): 1 (17) N (%)
- TEAE: ECG QT prolonged (G2): 0 N (%)
- TEAE: Enterococcal bacteremia (G2): 0 N (%)
- TEAE: Esophagitis (G2): 0 N (%)
- TEAE: Esophagoscopy (G2): 1 (17) N (%)
- TEAE: Eye pain (G2): 0 N (%)
- TEAE: Fatigue (G2): 3 (50) N (%)
- TEAE: Gastritis (G2): 0 N (%)
- TEAE: Hypomagnesaemia (G2): 0 N (%)
- TEAE: Myalgia (G2): 0 N (%)
- TEAE: Nausea (G2): 0 N (%)
- TEAE: Neutrophil count decreased (G2): 0 N (%)
- TEAE: Oropharyngeal pain (G2): 1 (17) N (%)
- TEAE: Pain in extremity (G2): 1 (17) N (%)
- TEAE: Paresthesia (G2): 0 N (%)

From publication PMC10778198, “First-in-Human Dose-Escalation Study of the Novel Oral Depsipeptide Class I-Targeting HDAC Inhibitor Bocodepsin (OKI-179) in Patients with Advanced Solid Tumors” (Cancers, 2023)
